Data published in ChEMBL document CHEMBL1150750, “Modified taxols, 4. Synthesis and biological activity of taxols modified in the side chain” (J Nat Prod, 1988).
≈ marks a conversion by molar mass, not a printed value. Values belong to the molecule of their own block, whether it stands above or below them.

Key:
KB = assay: Cytotoxicity against human KB cells; assay type: functional; conditions: for EC50: Homo sapiens, KB, read-out: ED50 (the source's name)
P388 [1] = assay: In vivo cytotoxicity against mouse P388 cells at 44 mg/kg; assay type: functional
P388 [2] = assay: In vivo cytotoxicity against mouse P388 cells at 22 mg/kg; assay type: functional
P388 [3] = assay: In vivo cytotoxicity against mouse P388 cells at 11 mg/kg; assay type: functional
P388 [4] = assay: In vivo cytotoxicity against mouse P388 cells at 20 mg/kg; assay type: functional
P388 [5] = assay: In vivo cytotoxicity against mouse P388 cells at 10 mg/kg; assay type: functional
P388 [6] = assay: In vivo cytotoxicity against mouse P388 cells at 5 mg/kg; assay type: functional
P388 [7] = assay: In vivo cytotoxicity against mouse P388 cells at 2.5 mg/kg; assay type: functional
P388 [8] = assay: In vivo cytotoxicity against mouse P388 cells at 40 mg/kg; assay type: functional
[9] = Solubility in water by HPLC method; assay type: physicochemical
[10] = Stability in water assessed as decomposition to taxol after 24 hrs; assay type: physicochemical; conditions: buffer
[11] = Chemical stability assessed as decomposition to taxol at pH 6.6 after 20 hrs; assay type: physicochemical; conditions: buffer, pH 6.6, 20 h
P388 [12] = assay: In vivo cytotoxicity against mouse P388 cells at 26 mg/kg; assay type: functional
P388 [13] = assay: In vivo cytotoxicity against mouse P388 cells at 13 mg/kg; assay type: functional
P388 [14] = assay: In vivo cytotoxicity against mouse P388 cells at 6.5 mg/kg; assay type: functional
P388 [15] = assay: In vivo cytotoxicity against mouse P388 cells at 3.25 mg/kg; assay type: functional

SMILES: CC(=O)O[C@H]1C(=O)[C@@]2(C)[C@H]([C@H](OC(=O)c3ccccc3)[C@]3(O)C[C@H](OC(=O)[C@H](OC(=O)CCC(=O)O)[C@@H](NC(=O)c4ccccc4)c4ccccc4)C(C)=C1C3(C)C)[C@]1(OC(C)=O)CO[C@@H]1C[C@@H]2O
EC50 (KB): 0.01 µg/mL (≈ 0.0105 µM)
T/C (P388 [1]): 129%
T/C (P388 [2]): 122%
T/C (P388 [3]): 112%

SMILES: CC(=O)O[C@H]1C(=O)[C@@]2(C)[C@H]([C@H](OC(=O)c3ccccc3)[C@]3(O)C[C@H](OC(=O)[C@H](OC(C)=O)[C@@H](NC(=O)c4ccccc4)c4ccccc4)C(C)=C1C3(C)C)[C@]1(OC(C)=O)CO[C@@H]1C[C@@H]2O
ED50 (KB): 2 ×10⁻⁵ ug/ml
T/C (P388 [4]): 140%
T/C (P388 [5]): 130%
T/C (P388 [6]): 127%
T/C (P388 [7]): 127%

SMILES: CC(=O)O[C@H]1C(=O)[C@]2(C)[C@@H](OC(C)=O)C[C@H]3OC[C@@]3(OC(C)=O)[C@H]2[C@H](OC(=O)c2ccccc2)[C@]2(O)C[C@H](OC(=O)[C@H](OC(C)=O)[C@@H](NC(=O)c3ccccc3)c3ccccc3)C(C)=C1C2(C)C
EC50 (KB): 0.2 µg/mL (≈ 0.213 µM)
T/C (P388 [4]): 100%
T/C (P388 [5]): 105%
T/C (P388 [8]): 104%

solubility [9]: 2200 µg/mL
Stability [10]: 90%
Stability [11]: Unstable
SMILES: CC(=O)O[C@H]1C(=O)[C@@]2(C)[C@H]([C@H](OC(=O)c3ccccc3)[C@]3(O)C[C@H](OC(=O)[C@H](OC(=O)CCN)[C@@H](NC(=O)c4ccccc4)c4ccccc4)C(C)=C1C3(C)C)[C@]1(OC(C)=O)CO[C@@H]1C[C@@H]2O.O=CO
ED50 (KB): 2 ×10⁻⁴ ug/ml
T/C (P388 [4]): 130%
T/C (P388 [5]): 117%
T/C (P388 [8]): 140%

SMILES: CC(=O)O[C@H]1C(=O)[C@@]2(C)[C@H]([C@H](OC(=O)c3ccccc3)[C@]3(O)C[C@H](OC(=O)[C@H](O[Si](C)(C)C(C)(C)C)[C@H](NC(=O)c4ccccc4)c4ccccc4)C(C)=C1C3(C)C)[C@]1(OC(C)=O)CO[C@@H]1C[C@@H]2O
EC50 (KB): 0.3 µg/mL (≈ 0.31 µM)

SMILES: CC(=O)O[C@H]1C(=O)[C@@]2(C)[C@H]([C@H](OC(=O)c3ccccc3)[C@]3(O)C[C@H](OC(=O)[C@H](OC(=O)CCNC(=O)OCc4ccccc4)[C@@H](NC(=O)c4ccccc4)c4ccccc4)C(C)=C1C3(C)C)[C@]1(OC(C)=O)CO[C@@H]1C[C@@H]2O
ED50 (KB): 1 ×10⁻⁴ ug/ml

SMILES: CC(=O)O[C@H]1C(=O)[C@@]2(C)[C@H]([C@H](OC(=O)c3ccccc3)[C@]3(O)C[C@H](OC(=O)[C@@H]4OC(=O)N(C(=O)c5ccccc5)[C@H]4c4ccccc4)C(C)=C1C3(C)C)[C@]1(OC(C)=O)CO[C@@H]1C[C@@H]2O
EC50 (KB): 0.2 µg/mL (≈ 0.227 µM)

SMILES: CC(=O)O[C@H]1C(=O)[C@]2(C)[C@@H](OC(C)=O)C[C@H]3OC[C@@]3(OC(C)=O)[C@H]2[C@H](OC(=O)c2ccccc2)[C@]2(O)C[C@H](OC(=O)[C@H](O)[C@@H](NC(=O)c3ccccc3)c3ccccc3)C(C)=C1C2(C)C [PACLITAXEL C7 ACETYLCARBOXYLIC ACID ESTER]
EC50 (KB): 0.004 µg/mL (≈ 0.00446 µM)
T/C (P388 [12]): 130%
T/C (P388 [13]): 127%
T/C (P388 [14]): 124%
T/C (P388 [15]): 128%

SMILES: CC(=O)O[C@H]1C(=O)[C@@]2(C)[C@H]([C@H](OC(=O)c3ccccc3)[C@]3(O)C[C@H](OC(=O)[C@H](O)[C@@H](NC(=O)c4ccccc4)c4ccccc4)C(C)=C1C3(C)C)[C@]1(OC(C)=O)CO[C@@H]1C[C@@H]2O [PACLITAXEL]
ED50 (KB): 1 ×10⁻⁵ ug/ml
T/C (P388 [4]): 104%
T/C (P388 [5]): 137%
T/C (P388 [6]): 156%
T/C (P388 [7]): 147%
